How the values were obtained:
OVCAR-8 = conditions: OVCAR-8, 10 μM
MOLT-4 = conditions: MOLT-4, 10 μM
SK-MEL-28 = conditions: SK-MEL-28, 10 μM
MALME-3M = conditions: 10 μM
SK-MEL-2 = conditions: SK-MEL-2, 10 μM
SNB-75 = conditions: SNB-75, 10 μM
SN12C = conditions: 10 μM
HL-60(TB) = conditions: HL-60(TB), 10 μM
RPMI-8226 = conditions: RPMI-8226, 10 μM
SK-MEL-5 = conditions: SK-MEL-5, 10 μM
SF-539 = conditions: SF-539, 10 μM
HT29 = conditions: HT29, 10 μM
OVCAR-5 = conditions: OVCAR-5, 10 μM
M14 = test: NCI SRB screening; format: cell-based; conditions: M14, 10 μM
NCI-H460 = test: NCI SRB screening; format: cell-based, human; conditions: NCI-H460, 10 μM
SF-268 = conditions: SF-268, 10 μM
HCT-116 = test: SRB anti-proliferative assay; format: cell-based; conditions: Homo sapiens; HCT-116, SRB, mean ± SE of 3
Procedure: (§1) All the newly prepared target conjugates (7, 8a–c, 9 and 10a–e) were investigated for the prospective growth inhibitory actions against three different cancer cell lines viz.; A-549, MDA-MB-231, and HCT-116, using the sulforhodamine B colorimetric (SRB) assay. Staurosporine, a clinically used antitumor drug, was co-assayed as a reference agent for the experiment.
(§2) Examination of the cytotoxic activity for the target conjugates was carried out in accordance with the SRB colorimetric assay protocol, as described previously.
(§3) In vitro anti-proliferative activity assay
(§4) Cells at a concentration of 0.50 x
(§5) Sulfo-Rhodamine-B stain (SRB) assay.
(§6) cell to the wall of the plate.
(§7) wells were prepared for each individual dose).
(§8) Unbound dye was removed by four

MDA-MB-231 = test: SRB anti-proliferative assay; format: cell-based; conditions: Homo sapiens; MDA-MB-231, SRB, mean ± SE of 3
Procedure: as §1, §2, §3, §4, §5, §6, §7, §8

ACHN = conditions: 10 μM
KM12 = conditions: KM12, 10 μM
SNB-19 = conditions: SNB-19, 10 μM
NCI-H322M = test: NCI SRB screening; conditions: 10 μM
SW-620 = conditions: SW-620, 10 μM
HOP-92 = conditions: HOP-92, 10 μM
A549/ATCC = conditions: 10 μM
COLO 205 = test: NCI SRB screening; format: cell-based, human; conditions: COLO 205, 10 μM
PC-3 = test: NCI SRB screening; format: cell-based, human; conditions: PC-3, 10 μM
SK-OV-3 = conditions: SK-OV-3, 10 μM
UACC-257 = conditions: UACC-257, 10 μM
CCRF-CEM = conditions: 10 μM
A-549 = test: SRB anti-proliferative assay; format: cell-based; conditions: Homo sapiens, A549; A-549, SRB, mean ± SE of 3
Procedure: Staurosporine, a clinically used antitumor drug, was co-assayed as a reference agent for the experiment.
as §2, §3, §4, §5, §6, §7, §8

K-562 = conditions: K-562, 10 μM
EKVX = conditions: 10 μM
SR = conditions: 10 μM
BT-549 = conditions: BT-549, 10 μM
MDA-MB-231/ATCC = conditions: MDA-MB-231, 10 μM
786-0 = conditions: 786-0, 10 μM
UO-31 = conditions: UO-31, 10 μM
MCF7 = conditions: MCF7, 10 μM
OVCAR-3 = conditions: OVCAR-3, 10 μM
TK-10 = conditions: TK-10, 10 μM
IGROV1 = conditions: IGROV1, 10 μM
T-47D = conditions: 10 μM

With `C=CCn1cc(C=NN=C2C(=O)Nc3ccccc32)c2ccccc21` [Compound 10a] the GI % (OVCAR-8) was 15%, the GI % (MOLT-4) was 35% and the GI % (SK-MEL-28) was “– (Only GI % higher than 10% are shown)”. For the same compound, the GI % (MALME-3M) was 26%, the GI % (SK-MEL-2) was “– (Only GI % higher than 10% are shown)” and the GI % (SNB-75) was 18%. The GI % (SN12C) was “– (Only GI % higher than 10% are shown)”, the GI % (HL-60(TB)) was 22% and the GI % (RPMI-8226) was 13%. The GI % (SK-MEL-5) was “– (Only GI % higher than 10% are shown)”, the GI % (SF-539) was “– (Only GI % higher than 10% are shown)” and the GI % (HT29) was 10%. The GI % (OVCAR-5) was “– (Only GI % higher than 10% are shown)”, the GI % (M14) was 12% and the GI % (NCI-H460) was “– (Only GI % higher than 10% are shown)”. The GI % (SF-268) was “– (Only GI % higher than 10% are shown)”, the IC50 (HCT-116) was 7.7 ± 0.68 µM and the IC50 (MDA-MB-231) was 11.7 ± 1.04 µM. The GI % (ACHN) was “– (Only GI % higher than 10% are shown)”, the GI % (KM12) was “– (Only GI % higher than 10% are shown)” and the GI % (SNB-19) was “– (Only GI % higher than 10% are shown)”. The GI % (NCI-H322M) was “– (Only GI % higher than 10% are shown)”, the GI % (SW-620) was “– (Only GI % higher than 10% are shown)” and the GI % (HOP-92) was “– (Only GI % higher than 10% are shown)”. The GI % (A549/ATCC) was “– (Only GI % higher than 10% are shown)”, the GI % (COLO 205) was 30% and the GI % (PC-3) was 22%. For the same compound, the GI % (SK-OV-3) was “– (Only GI % higher than 10% are shown)”, the GI % (UACC-257) was “– (Only GI % higher than 10% are shown)” and the GI % (CCRF-CEM) was “– (Only GI % higher than 10% are shown)”. For the same compound, the IC50 (A-549) was 17.3 ± 1.19 µM, the GI % (K-562) was 30% and the GI % (EKVX) was “– (Only GI % higher than 10% are shown)”. For the same compound, the GI % (SR) was 50%, the GI % (BT-549) was “– (Only GI % higher than 10% are shown)” and the GI % (MDA-MB-231/ATCC) was “– (Only GI % higher than 10% are shown)”. The GI % (786-0) was “– (Only GI % higher than 10% are shown)”, the GI % (UO-31) was 33% and the GI % (MCF7) was 33%. The GI % (OVCAR-3) was 21%, the GI % (TK-10) was “– (Only GI % higher than 10% are shown)” and the GI % (IGROV1) was 28%. It also gave a GI % (T-47D) of 56%.
For `CC(C)n1cc(C=NN=C2C(=O)Nc3ccccc32)c2ccccc21` [Compound 9], the GI % (OVCAR-8) was “– (Only GI % higher than 10% are shown)”, the GI % (MOLT-4) was 13% and the GI % (SK-MEL-28) was “– (Only GI % higher than 10% are shown)”. For the same compound, the GI % (MALME-3M) was “– (Only GI % higher than 10% are shown)”, the GI % (SK-MEL-2) was “– (Only GI % higher than 10% are shown)” and the GI % (SNB-75) was 33%. For the same compound, the GI % (SN12C) was “– (Only GI % higher than 10% are shown)”, the GI % (HL-60(TB)) was 18% and the GI % (RPMI-8226) was “– (Only GI % higher than 10% are shown)”. For the same compound, the GI % (SK-MEL-5) was “– (Only GI % higher than 10% are shown)”, the GI % (SF-539) was “– (Only GI % higher than 10% are shown)” and the GI % (HT29) was “– (Only GI % higher than 10% are shown)”. For the same compound, the GI % (OVCAR-5) was “– (Only GI % higher than 10% are shown)”, the GI % (M14) was “– (Only GI % higher than 10% are shown)” and the GI % (NCI-H460) was “– (Only GI % higher than 10% are shown)”. For the same compound, the GI % (SF-268) was “– (Only GI % higher than 10% are shown)”, the IC50 (HCT-116) was 28.2 ± 1.73 µM and the IC50 (MDA-MB-231) was 10.4 ± 0.8 µM. For the same compound, the GI % (ACHN) was “– (Only GI % higher than 10% are shown)”, the GI % (KM12) was “– (Only GI % higher than 10% are shown)” and the GI % (SNB-19) was “– (Only GI % higher than 10% are shown)”. The GI % (NCI-H322M) was “– (Only GI % higher than 10% are shown)”, the GI % (SW-620) was “– (Only GI % higher than 10% are shown)” and the GI % (HOP-92) was 14%. The GI % (A549/ATCC) was “– (Only GI % higher than 10% are shown)”, the GI % (COLO 205) was “– (Only GI % higher than 10% are shown)” and the GI % (PC-3) was “– (Only GI % higher than 10% are shown)”. For the same compound, the GI % (SK-OV-3) was “– (Only GI % higher than 10% are shown)”, the GI % (UACC-257) was “– (Only GI % higher than 10% are shown)” and the GI % (CCRF-CEM) was “– (Only GI % higher than 10% are shown)”. The IC50 (A-549) was 31.7 ± 2.27 µM, the GI % (K-562) was “– (Only GI % higher than 10% are shown)” and the GI % (EKVX) was 38%. For the same compound, the GI % (SR) was 11%, the GI % (BT-549) was “– (Only GI % higher than 10% are shown)” and the GI % (MDA-MB-231/ATCC) was 11%. The GI % (786-0) was “– (Only GI % higher than 10% are shown)”, the GI % (UO-31) was 14% and the GI % (MCF7) was 10%. The GI % (OVCAR-3) was “– (Only GI % higher than 10% are shown)”, the GI % (TK-10) was “– (Only GI % higher than 10% are shown)” and the GI % (IGROV1) was “– (Only GI % higher than 10% are shown)”. The GI % (T-47D) was 13%.
